In data set [1] the test system is Orobanche cumana Wallr. seeds. The data set is described as follows: Germination of preconditioned Orobanche cumana seeds on glass fiber filter paper in petri dishes. The format is in vivo. As to conditions: mean, N = 5 × 100 seeds, seed lot IN153. The method, then: The effect of compounds of Formula (I) on germination of Orobanche cumana Wallr. seeds was evaluated on glass fiber filter paper (GFFP) in petri dishes. Seeds were preconditioned at moisture and suitable temperature to become responsive to the specific chemical germination stimulants.
Test compounds were dissolved in DMSO (10 000 mg l^−1) and stored at room temperature in a desiccators with desiccants. The stock solutions were dissolved with deionised water to the appropriate final test concentration.
Seeds of O. cumana race ‘F’ (IN153) were collected from a sunflower field in Manzanilla (Seville, Spain) in 2006 and stored at room temperature. To separate seeds from heavy organic debris, a modified sucrose floatation technique as described by Hartman & Tanimonure (Plant Disease (1991), 75, p. 494) was applied. Seeds were filled into a separation funnel and stirred in water. When seeds floated to the surface, the water fraction containing heavy debris was discarded. Seeds were re-suspended in 2.5M sucrose solution (specific gravity of 1.20) and heavy debris was allowed to settle down for 60 min After removing debris, seeds were disinfected in 1% sodium hypochlorite solution and 0.025% (v/v) Tween 20 for 2 min. The seeds were decanted onto two layers of cheesecloth, rinsed with sterile deionised water and re-suspended in sterile deionised water. Two ml of the seed suspension containing approximately 150-400 seeds were spread evenly on two layers of sterile glass fiber filter paper disc ([…]) in Petri dishes (Ø9 cm). After wetting the discs with 3 ml sterile deionised water, petri dishes were sealed with parafilm. Seeds were incubated for 10 days at 20° C. in the dark for seed conditioning. The upper disc with conditioned seeds was briefly dried, transferred to a petri dish lined with a dry GFFP disc, and wetted with 6 ml of the appropriate test solution. The compounds of Formula (I) were tested at concentrations of 0.001, 0.01, 0.1, or 1 mg l^−. The strigolactone analogue GR24 was included as positive control and 0.01% DMSO as negative control. All treatments were tested in five replicates. Seeds were re-incubated at 20° C. in the dark and examined for germination 10 days later. The radicles of germinated seeds were stained for 5 min with blue ink (MIGROS, Switzerland) in 5% acetic acid according to Long et al. (Seed Science Research (2008), 18, p. 125). After staining, seeds were photographed using a camera stand mounted with a digital SLR camera (Canon EOS 5D). Germination of 100 seeds per replicate was evaluated on digital images. Seeds were considered germinated when the radicle protruded from the seed coat.

Data set [2] deals with Brassica oleracea cv Botrytis (temperate cauliflower) seeds. The data set is described as follows: Paper germination test, temperate cauliflower seeds, 10° C. in the light. The format is in vivo. The note with it: 25 μM, sets A and B separate experiments. As for the experimental part: The effect of compounds of Formula (I) on the germination of Brassica oleracea cv Botrytis or common cauliflower was tested on two types of cauliflowers: temperate types and tropical types. These two types were chosen because they display different sensitivities to the light conditions and temperature during germination. Germination of a sensitive temperate type is inhibited by light at 10° C. while for the tropical types germination at 20° is stimulated by the presence of light.
The temperate seed batches tested are part of commercially produced seed batches of various varieties which are known to be sensitive to light at 10° C. These seeds were harvested and cleaned according standard commercial procedures. Ready seed batches were used (Ready indicates the processing level of these seeds: they have been cleaned and sized but received no other treatments). The tropical seed batches tested are part of seed batches produced as basic seed (for maintenance of the parental line) and were processed accordingly.
Germination was assessed using the standard paper germination test for Brassica: Fifty seeds were placed on blue germination paper, which was moistened with the appropriate solutions, in closed oblong germination boxes. Each condition was tested in duplo. Germination boxes were placed in controlled germination cabinets with the appropriate temperature and light conditions. Germination of seeds was counted at regular intervals. Seeds were considered to be germinated when the radical had protruded the testa and endosperm (radical size approximately 1 mm)
Test compounds were dissolved in DMSO at a concentration of 50 mM and stored at −20° C. The strigolactone analogue GR24 (commercially available as a racemic mixture of 2 diastereoisomers, referred to as “synthetic strigolactone GR-24” and first prepared by Johnson A. W. & all, Journal of the Chemical Society, Perkin Transactions 1, 1981, page 1734-1743) was included as positive control. Germination solutions were prepared by diluting the stock solutions with demineralized water till 25 μM. As control solutions demineralized water and a 0.05% v/v DMSO solution were used.

Setting [3] is: Table B5, concentration 0.01 mg 1^−1 (second column), DMSO control 1.4% germination.
Where [4] appears, read: Table B5, concentration 0.01 mg 1^−1 (third column), DMSO control 1.4% germination.
The mark [5] stands for this setting: Table B5, concentration 1 mg 1^−1, DMSO control 1.4% germination.
[6] abbreviates: temperate cauliflower Spacestar seed batch 11B313 (cold-sensitive).
The mark [7] stands for this setting: temperate cauliflower Spacestar seed batch 11B314 (not cold sensitive).
Setting [8] is: Table B1, concentration 0.001 mg 1^−1, DMSO control 0.4% germination.
The mark [9] stands for this setting: Table B1, concentration 0.1 mg 1^−1, DMSO control 0.4% germination.
Setting [10] is: Table B1, concentration 1 mg 1^−1, DMSO control 0.4% germination.

“And” between values parts separate entries of the source, which are not always exact repeats. Equal entries are not always repeated.

The record followed here is patent publication US9119398B2, “Plant growth regulating compounds” (Syngenta Participations AG, priority 2012, dated 2015).

In the case of `CC1=CC(O/C=C2\CCCCNC2=O)OC1=O` (stereo not drawn) [Ia-13, (3E)-3-[(4-methyl-5-oxo-2H-furan-2-yl)oxymethylene]azepan-2-one], the entries for the “Germination (%)” value in data set [1] (setting [3]), in data set [1] (setting [4]) and in data set [1] (setting [5]) were 34.2%, 25.6% and 70%, respectively. The “Gmax (%), total germination as percentage of sown seeds” value (“Gmax (%) … as percentage of sown seeds” for short) was found to be 42.3% in data set [2] (setting [6]) and 92.5% in data set [2] (setting [7]). In addition, the “stimulation (%), extra germination compared to the DMSO treatment, as percentage of the germination in the DMSO treatment” value in data set [2] (setting [6]) is reported as −21.8%; in data set [2] (setting [7]), 7.6%.
On to `CC1=CC(O/C=C2/C(=O)NC3C=CCC23)OC1=O` (stereo not drawn) [Ia-1, (3E)-3-[(4-methyl-5-oxo-2H-furan-2-yl)oxymethylene]-1,3a,4,6a-tetrahydrocyclopenta[b]pyrrol-2-one], for which the “Germination (%)” value in data set [1] (setting [8]) was determined as 1.4%; in data set [1] (setting [9]), 24.6%; in data set [1] (setting [10]), 23.2%. Further, the “Gmax (%) … as percentage of sown seeds” value in data set [2] (setting [6]) turned out to be 72.0%; in data set [2] (setting [7]), 96.5%. Moreover, the “stimulation (%), extra germination compared to the DMSO treatment, as percentage of the germination in the DMSO treatment” value in data set [2] (setting [6]) stood at 20.0%; in data set [2] (setting [7]), 6.6%.
Broadly, the melting point is the temperature, or range, at which the solid turns liquid. `CC1=CC(O/C=C2\CCCCN(c3ccccc3)C2=O)OC1=O` (stereo not drawn) [Ic-13, (3E)-3-[(4-methyl-5-oxo-2H-furan-2-yl)oxymethylene]-1-phenyl-azepan-2-one] had a melting point of 150 to 160 °C.
Consider `CC1=C[C@H](O/C=C2/C(=O)O[C@@H]3c4ccccc4C[C@H]23)OC1=O` (mixture of isomers) [GR-24, reference compound], for which the “Germination (%)” value was determined as 88% in data set [1] (Concentration 0.01 mg l^-1, 10 days at 20° C. in the dark); 86.6% in data set [1] (Concentration 0.01 mg l^-1 as printed, 10 days at 20° C. in the dark); 95.2% in data set [1] (Concentration 1 mg l^-1, 10 days at 20° C. in the dark); 24.8% in data set [1] (setting [8]); 47.2% in data set [1] (setting [9]); 80.2% in data set [1] (setting [10]). Besides, the “Germination (%)” value in data set [1] (Table B2, concentration 0.01 mg 1^−1, DMSO control 2.4% germination) is given as 12.2%; in data set [1] (Table B2, concentration 0.1 mg 1^−1, DMSO control 2.4% germination), 46.4%; in data set [1] (Table B2, concentration 1 mg 1^−1, DMSO control 2.4% germination), 85.2%; in data set [1] (Table B3, concentration 0.001 mg 1^−1, DMSO control 0% germination) it was 26%; in data set [1] (Table B3, concentration 0.01 mg 1^−1, DMSO control 0% germination), 51%; in data set [1] (Table B3, concentration 0.1 mg 1^−1, DMSO control 0% germination) it was 84.2%. In addition, the “Germination (%)” value in data set [1] (setting [3]) is 78.4%; in data set [1] (setting [4]) it was 65%; in data set [1] (setting [5]), 86.6%; in data set [1] (Table B6, concentration 0.001 mg 1^−1, DMSO control 2.4% germination), 23.0%; in data set [1] (Table B6, concentration 0.1 mg 1^−1, DMSO control 2.4% germination), 43.2%; in data set [1] (Table B6, concentration 1 mg 1^−1, DMSO control 2.4% germination) it was 58.1%. For the same compound, the “Gmax (%) … as percentage of sown seeds” value is 71.5% and 80.0% in data set [2] (setting [6]); 93.5% and 93.0% in data set [2] (setting [7]). In data set [2] (setting [7]), the “stimulation (%), extra germination compared to the DMSO treatment, as percentage of the germination in the DMSO treatment” value is 3.3% and 8.1%.
